Entries after “also recorded” stand apart in the source; their conditions may differ. Residues, ends and D or L forms follow the SMILES beside them. No end group written: not given here.
What was measured:
Anxa1-His6 protein [1] = target: T1, Anxa1-His6 protein (Homo sapiens, UniProt P04083); assay: inhibition of binding of FITC-labeled polyacrylamide-LeA oligosaccharide to Anxa1-His6
T1 construct: Full-length cDNA encoding Anxa1 was obtained from Invitrogen (Carlsbad, Calif.) and subcloned into pET29a vector; His6 (C); made in house; host or cells: bacteria (pET29a vector, Novagen)
T1 sequence (P04083 1-346): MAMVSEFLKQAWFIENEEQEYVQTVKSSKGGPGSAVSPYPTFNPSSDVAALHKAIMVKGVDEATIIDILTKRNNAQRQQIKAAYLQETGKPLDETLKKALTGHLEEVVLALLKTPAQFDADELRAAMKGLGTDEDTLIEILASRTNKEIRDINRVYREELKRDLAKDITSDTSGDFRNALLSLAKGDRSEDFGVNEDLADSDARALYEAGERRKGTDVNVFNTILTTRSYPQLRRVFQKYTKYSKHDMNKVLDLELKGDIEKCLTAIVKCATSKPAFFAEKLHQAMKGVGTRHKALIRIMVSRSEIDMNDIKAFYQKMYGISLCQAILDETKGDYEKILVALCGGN
From the text: (§1) FIGS. 1A-1H show the essential role of annexin 1 (Anxa1) in tumor growth and identification of a peptide sequence with tumor vasculature targeting activity in vivo. A and B. Growth of B16 tumors subcutaneously injected into Anxa1(+/−) and Anxa1(−/−) mutant mice. C. Histology of B16 tumors produced in Anxa1(+/−) and Anxa1(−/−) mice. Each scale bar represents 2.00 mm. D. Immunohistochemistry of B16 tumors for CD31 showing endothelial cells and vasculature. Each scale bar represents 200 μm. E. In vivo phage targeting in B16 tumor-bearing mice. Numbers of transformed colonies recovered from the tumor or lung were determined. […] F. In vivo tumor and organ targeting activity of IFLLWQR (SEQ ID NO:2) displaying phage. Phage was injected into B16 tumor bearing mice pre-injected with anti-Anxa1 antibody or with control rabbit IgG. G. In vitro plate assay for binding of IF7-A488 (upper line) and control RQ7-A488C (lower line) to recombinant […] protein produced by bacteria. H. Effect of IF7 (upper line) and control RQ7 (lower line) on binding of FITC-labeled polyacrylamide-LeA oligosaccharide to Anxa1-His6 protein.
(§2) Full-length cDNA encoding Anxa1 was obtained from Invitrogen (Carlsbad, Calif.) and subcloned into pET29a vector (Novagen) to produce an […] fusion protein. […] After washing the plate, fluorescence was measured by a Molecular Devices Analyst HT plate reader. […]

Anxa1-His6 protein [2] = target: T1, Anxa1-His6 protein; assay: in vitro plate assay for binding to recombinant Anxa1-His6 protein; conditions: 4 μg/ml, Tris-HCl pH7.4, 1 mM CaCl2, 0.05% Tween 20
From the text: as §1, §2

[3] = test system: Lewis lung carcinoma (LLC) tumors; assay: in vivo imaging of tumor targeting in dorsal skinfold chamber; set-up: species or system mouse; conditions: for vascular staining in tumor tissue sections: 20 min after injection
Experimental: (A) Lewis lung carcinoma (LLC) tumors were allowed to vascularize for 3 days in dorsal skinfold chamber window in nude mice. Mice were injected with 100 μl of 50 μM IF7-A488 (row a) or RQ7-A488 (row b) in 5% glucose in water. IF7-A488 was also injected to tumor-bearing mice pre-injected with rabbit IgG (row c) or with rabbit anti-Anxa1 antibody (row d). Fluorescence signals were monitored under a fluorescence microscope up to 40 min post-injection. From left: bright field before injection, and fluorescence at 0, 5, 20 min after injection. Far right, the boundary of tumor and stroma at 20 min (Scale bar=500 μm). (B) Quantitative analysis of fluorescence during the course of the analysis shown in A. The line with the highest signal at 10 minutes represents IF&-A488. The line with the second highest signal at 10 minutes represents the control IgG. The line with the third highest signal at 10 minutes represents Anxa-1 antibody. The line with the lowest signal at 10 minutes represents RQ7-A488. Intensity of fluorescence was determined by Image J program. Error bars represent SD (n=3). Asterisks show statistical significance or p<0.0001, t test. (C) Fluorescence micrographs of tumor sections 20 min after injection with IF7-A488 and RQ7-A488. From left: IF7-A488, DAPI, merged, and bright field. […] Experiments were repeated 3 times, and representative results are shown. Arrows indicate fluorescence. (D) Fluorescence remained in circulation in mice with or without subcutaneous B16 tumors. IF7-A488 was injected intravenously through the tail vein, and fluorescence remaining in circulation was measured. Upper line represents “without tumor”, middle line represents “with 3 days tumor”, and bottom line represents “with 6 days tumor.” Error bars represent SD (n=3).
A Lewis lung carcinoma (LLC) tumor was produced in a donor nude mouse by subcutaneous injection, and small piece of tumor (less than 1 mm^3) was transplanted to a dorsal skinfold chamber in a recipient nude mouse (8-10 weeks female Balb/c nude) as described (Lehr et al., Am J Pathol 1993; 143:1055-62; Oh et al., Nat Biotechnol 2007; 25:327-37). Three days later, the mouse was anesthetized by peritoneal injection of 1.25% 2,2,2-Tribromoethanol ([…]). IF7-A488 or RQ7-A488 (100 μl; […] in 5% glucose solution) was injected through the tail vein. Intravital Alexa 488 signals in the tumor were detected and recorded by a Zeiss Axioplan fluorescence microscope and a digital camera system (DP70 and DP controller, Olympus). For inhibition assays, rabbit anti-Anxa1 antibody (H-65, Santa Cruz) or rabbit IgG (20 μg IgG) was injected 15 minutes prior to IF7-A488 injection. Signal intensity in the tumor from 0 min to 40 min was measured by Image J (NIH, Maryland). After 10 min, irradiation of specimens by a UV lamp was limited only to times when photos were taken to avoid fluorescence bleaching. The tumor was isolated from the dorsal skin folder chamber, fixed with 4% paraformaldehyde at room temperature for 15 min, immersed in O.C.T compound, and cryosections were made. Frozen sections were overlaid with Vectashield containing DAPI (Vector laboratories) and examined under a Zeiss Axioplan fluorescence microscope.

[4] = fluorescence remaining in circulation after intravenous injection; format: in vivo, mouse
Experimental: (A) Lewis lung carcinoma (LLC) tumors were allowed to vascularize for 3 days in dorsal skinfold chamber window in nude mice. Mice were injected with 100 μl of 50 μM IF7-A488 (row a) or RQ7-A488 (row b) in 5% glucose in water. IF7-A488 was also injected to tumor-bearing mice pre-injected with rabbit IgG (row c) or with rabbit anti-Anxa1 antibody (row d). Fluorescence signals were monitored under a fluorescence microscope up to 40 min post-injection. From left: bright field before injection, and fluorescence at 0, 5, 20 min after injection. Far right, the boundary of tumor and stroma at 20 min (Scale bar=500 μm). (B) Quantitative analysis of fluorescence during the course of the analysis shown in A. The line with the highest signal at 10 minutes represents IF&-A488. The line with the second highest signal at 10 minutes represents the control IgG. The line with the third highest signal at 10 minutes represents Anxa-1 antibody. The line with the lowest signal at 10 minutes represents RQ7-A488. Intensity of fluorescence was determined by Image J program. […] (C) Fluorescence micrographs of tumor sections 20 min after injection with IF7-A488 and RQ7-A488. […] Arrows indicate fluorescence. (D) Fluorescence remained in circulation in mice with or without subcutaneous B16 tumors. IF7-A488 was injected intravenously through the tail vein, and fluorescence remaining in circulation was measured. […]

[5] = test system: Mouse melanoma B16F1 tumors; format: in vivo; conditions: B16 melanoma, 0.13 μmoles iv
Experimental: (a) Mouse melanoma B16F1 tumors were grown subcutaneously in C57BL6 mice. On day 10, each mouse was injected intravenously with either 100 μl of 5% glucose or that containing 0.13 μmoles of each IF7, GA, or IF7-GA. Injections were administered every other day, for a total of three injections, until day 14. […] B, Histochemistry of tumors from the mice intravenously injected with the compounds described in A. Apoptotic tumor cells along blood vessels in transplanted tumors are detected by TUNEL assay. B16 melanoma (a), LLC lung carcinoma (b), PC3 prostate tumor (c) and MDA-MB-231 breast tumor (d) from mice treated with each compound.
Injections were administered every other day, for a total of 7 injections, until day 26, as shown by arrows.

[6] = test system: Mouse Lewis lung carcinoma (LLC) tumors; assay: subcutaneous Lewis lung carcinoma tumor model; format: in vivo; conditions: 0.13 μmoles iv
Experimental: (§3) FIGS. 6A and 6B show the effect of IF7-GA on melanoma, lung carcinoma, prostate cancer, and breast cancer mouse models. A, Effect of IF7-GA on tumor size. […] Mice were euthanised on day 15 to measure tumor weight. […] Mice were euthanised on day 13 and tumors weighed. (c) Human prostate cancer PC3 tumors were grown orthotopically in the prostate of SCID mice. On day 7, each mouse was injected intravenously with the compounds as in A-a, and injections administered every 4 days, for a total of four injections, until day 22. Mice were euthanised on day 28 and tumors weighed. (d) Human breast cancer MDA-MB-231 tumors were grown orthotopically in fat pads of SCID mice. On day 7, each mouse was injected intravenously with the compounds as in A-a, and injections performed every 4 days, for a total of four injections, until day 22. […] B, Histochemistry of tumors from the mice intravenously injected with the compounds described in A. Apoptotic tumor cells along blood vessels in transplanted tumors are detected by TUNEL assay. […]
(§4) Mouse melanoma B16F1 cells (2×10^5 cells/100 μl serum-free DMEM) were injected subcutaneously into the dorsal flank of C57BL/6 female mice (8-10 weeks old). […] On day 15, mice were sacrificed and tumor weights determined. […] On day 13, mice were sacrificed and tumor weights determined. […] On day 28, mice were sacrificed and prostate tumor weights determined. […]

[7] = test system: Human prostate cancer PC3 tumors; assay: orthotopic PC3 prostate cancer model in SCID mice; format: in vivo; conditions: 0.13 μmoles iv
Experimental: as §3, §4

[8] = test system: Human breast cancer MDA-MB-231 tumors; assay: orthotopic MDA-MB-231 breast cancer model in SCID mice; format: in vivo; conditions: MDA-MB-231 breast tumor, 0.13 μmoles iv
Experimental: as §3, §4

[9] = body weights, blood cell counts and blood chemistry of treated nude mice; format: in vivo, mouse; conditions: daily injection for 10 days, versus no drug injection
From the text: FIGS. 15A, 15B and 15C show body weights (A), blood cell counts (B), and blood chemistry (C) of the nude mice treated with IF7C(RR)-SN38 and RQ7C(RR)-SN38 daily injection for 10 days.

Anxa1-His protein = target: T2, Anxa1-His protein (Homo sapiens, UniProt P04083); assay: isothermal titration calorimetry (ITC) with Anxa1-His protein; format: binding; conditions: 23° C., 20 mM Tris pH 7.9, 250 mM NaCl, 1 mM CaCl2, 10% dimethylsulfoxide; average n=4, two Anxa1-His preparations
T2 construct: Full-length cDNA encoding Anxa1 was obtained from Invitrogen (Carlsbad, Calif.) and subcloned into pET29a vector; His6 (C); made in house; host or cells: bacteria (pET29a vector, Novagen)
T2 sequence (P04083 1-346): T1 sequence (P04083 1-346)
Experimental: ITC was performed on a VP-ITC calorimeter from Microcal (Northampton, Mass.). In this analysis IF7K3C peptide or […] (SEQ ID NO:12), in which IF7 was modified by inserted with three lysine residues between IF7 and C to increase solubility in water. Eight μl aliquots of solution containing 1.0 or 1.5 mM were injected into the cell containing 100 or 150 μM Anxa1-His protein. In each experiment 37 injections were made. The experiments were performed at 23° C. in buffer containing 20 mM Tris pH 7.9, 250 mM NaCl, 1 mM CaCl2 and 10% dimethylsulfoxide. Experimental data were analyzed using Microcal Origin software provided by the ITC manufacturer (Microcal, Northampton, Mass.).

[10] = 100 μl of 50 μM, tail vein, nude mice

RQWLLFI (control peptide) [RQ7, reference compound]
inhibition of fucosylated carbohydrate (LeA) binding to Anxa1 (Anxa1-His6 protein [1]): not by RQ7

RQ7-A488 (RQWLLFI; also: Alexa 488 conjugate, site not given here) [reference compound]
binding to recombinant Anxa1-His6 protein in plate assay (Anxa1-His6 protein [2]): did not bind to Anxa1
tumor fluorescence signals [3, 10]: either not detectable or remained at background levels
vascular staining in tumor tissue sections [3]: not RQ7-A488; also recorded: no RQ7-A488 signal was detected

IF7-A488 (IFLLWQRC)
binding to recombinant Anxa1-His6 protein in plate assay (Anxa1-His6 protein [2]): binds to recombinant Anxa1-His6 protein
time until fluorescence signals appeared in the tumor [3, 10]: within one minute
time until tumor fluorescence reached a plateau [3, 10]: 9 min
vascular staining in tumor tissue sections [3]: vascular staining by IF7-A488; also recorded: detected on endothelial cells of tumor vasculature
tumor targeting after prior injection of irrelevant rabbit IgG ([3]; IgG 15 minutes prior): did not inhibit IF7-A488 tumor targeting
tumor fluorescence signals after prior injection of anti-Anxa1 antibody ([3]; antibody 15 minutes prior): significantly reduced
time tumor fluorescence remained high ([3]; or until the experiment was terminated): 40 min
fluorescence remaining in circulation, mice without tumors ([4]; control mice without tumors): remained in circulation after an initial surge
fluorescence remaining in circulation, B16-tumor-bearing mice ([4]; subcutaneous B16 tumors): complete disappearance from the circulation

CO[C@H]1/C=C\C=C(/C)C(=O)NC2=CC(=O)C(NCCCNC(=O)CCCN3C(=O)C=CC3=O)=C(C[C@@H](C)C[C@H](OC)[C@H](O)[C@@H](C)/C=C(\C)[C@@H]1OC(N)=O)C2=O [GA, 17-GMB-APA-GA, reference compound]
apoptosis of perivascular tumor cells (TUNEL, histochemistry) [5]: rarely show apoptosis
apoptosis of perivascular tumor cells (TUNEL) [6]: rarely show apoptosis
apoptosis of perivascular tumor cells (TUNEL) [7]: rarely show apoptosis
apoptosis of perivascular tumor cells (TUNEL) [8]: rarely show apoptosis

RQ7C(RR)-SN38 (RQWLLFICRR; also: SN-38 conjugate, site not given here)
blood cell counts [9]: None of the parameters showed significant differences to the control
blood chemistry [9]: None of the parameters showed significant differences to the control
body weights [9]: None of the parameters showed significant differences to the control

CC[C@H](C)[C@H](N)C(=O)N[C@@H](Cc1ccccc1)C(=O)N[C@@H](CC(C)C)C(=O)N[C@@H](CC(C)C)C(=O)N[C@@H](Cc1c[nH]c2ccccc12)C(=O)N[C@@H](CCC(N)=O)C(=O)N[C@@H](CCCNC(=N)N)C(=O)N[C@@H](CCCCN)C(=O)N[C@@H](CCCCN)C(=O)N[C@@H](CCCCN)C(=O)N[C@@H](CS)C(=O)O [IF7K3C] (H-IFLLWQRKKKC-OH; N-terminus and C-terminus assumed)
Kd (Anxa1-His protein): 11 ± 6 µM
